Measured values reported in patent US20220324835A1 (Nurix Therapeutics, Inc., priority 2018, published 2022).

Assays:
T-cell [1] = test: IL-2 secretion from T-cells stimulated with anti-CD3 antibody alone (Biological Example 2); type: cell-based; conditions: primary human total T-cells, read-out: IL-2 secretion, Anti-CD3 stimulation, fold change over baseline; for fold induction at 1 µM: 1 μM compound; for fold induction at 8 µM: 8 μM compound
T-cell [2] = test: CD25 cell surface staining on T-cells co-stimulated with anti-CD3 and anti-CD28 antibody (Biological Example 2); type: cell-based, human; conditions: Homo sapiens, T-cell, primary human total T-cells, baseline = anti-CD3/anti-CD28 stimulated cells without inhibitor, read-out: CD25 staining, Anti-CD3/Anti-CD28 stimulation, fold change over baseline; for fold induction at 0.3 µM: 0.3 μM compound; for fold induction at 1 µM: 1 μM compound; for fold induction at 4 µM: 4 μM compound
How it was run: (§1)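 Values are fold-change over baseline: readings (IL-2 release, CD25 staining) from inhibitor-treated T-cells divided against untreated cells […]. No detailed procedure stated.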

Cbl-b [3] = molecular target: T1, Cbl-b (Homo sapiens, UniProt Q13191); test: Cbl-b inhibition assay (Cbl-b activity assay, FRET, Biological Example 1; 100 mM NaCl, 60 nM Src kinase); type: biochemical; conditions: upper bound stated in text lists; read-out: IC50 values in the Cbl-b inhibition assay of Biological Example 1
How it was run: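 FRET read-out: loss of signal marks inhibition. Mix = biotin-Avi-Cbl-b (N-term), Src kinase, UbcH5B-Ub(Bodipy-FL, irreversible conjugate), streptavidin-Tb, assay buffer.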

T-cell [4] = test: IL-2 secretion from T-cells co-stimulated with anti-CD3 and anti-CD28 antibody (Biological Example 2); type: cell-based, human; conditions: Homo sapiens, T-cell, primary human total T-cells, baseline = anti-CD3/anti-CD28 stimulated cells without inhibitor, read-out: IL-2 secretion, Anti-CD3/Anti-CD28 stimulation, fold change over baseline; for fold induction at 0.3 µM: 0.3 μM compound; for fold induction at 1 µM: 1 μM compound; for fold induction at 4 µM: 4 μM compound
How it was run: as §1

Cbl-b [5] = molecular target: T1, Cbl-b; test: Cbl-b activity assay (Cbl-b inhibition assay), TR-FRET of Cbl-b interaction with UbcH5B-Ub; type: biochemical; conditions: assay buffer with 100 mM NaCl, 60 nM Src kinase; read-out: Cbl-b activity IC50
How it was run: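 Compound-treated Cbl-b was incubated 1.5 h with Src kinase (60 nM final; 30 nM for asterisked values, which also used 50 mM instead of 100 mM NaCl), 1 mM ATP and 5 mM MgCl2. Binding to fluorescent Ub-loaded UbcH5B (C85K mutant) was then read by TR-FRET after 1 h more.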

Cbl-b (residues 36-427) = Cbl-b (residues 36-427) (Homo sapiens, UniProt Q13191); test: Cbl-b binding assay (SPR, Biacore T200); conditions: 20° C., 1:1 binding model
How it was run: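 NeutrAvidin capture chip, 20° C; 50 s injections at 50 μl/min, 90-180 s dissociation; 0.3 M NaCl regeneration. Asterisked column: 50 mM NaCl buffer and 30 nM Src kinase in place of 100 mM NaCl and 60 nM Src kinase. 1:1 fit.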

T-cell [6] = test: CD25 cell surface staining on T-cells stimulated with anti-CD3 antibody alone (Biological Example 2); type: cell-based; conditions: primary human total T-cells, baseline = anti-CD3/anti-CD28 stimulated cells without inhibitor, read-out: CD25 staining, Anti-CD3 stimulation, fold change over baseline; for fold induction at 1 µM: 1 μM compound; for fold induction at 8 µM: 8 μM compound

Cbl-b (residues 36-427), sequence (Q13191 36-427): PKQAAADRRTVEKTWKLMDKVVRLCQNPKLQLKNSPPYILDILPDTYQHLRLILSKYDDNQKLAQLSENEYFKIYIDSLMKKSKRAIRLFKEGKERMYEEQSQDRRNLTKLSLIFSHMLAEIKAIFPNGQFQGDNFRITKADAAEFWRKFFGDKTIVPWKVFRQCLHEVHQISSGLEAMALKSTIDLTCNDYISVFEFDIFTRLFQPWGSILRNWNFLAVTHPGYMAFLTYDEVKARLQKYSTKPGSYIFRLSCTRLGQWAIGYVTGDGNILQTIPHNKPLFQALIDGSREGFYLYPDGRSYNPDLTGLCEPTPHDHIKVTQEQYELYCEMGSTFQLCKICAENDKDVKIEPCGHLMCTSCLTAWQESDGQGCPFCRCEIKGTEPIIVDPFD
T1 sequence (Q13191 36-427): as above

Structure (SMILES) | fold induction at 1 µM (T-cell [1]) | fold induction at 8 µM (T-cell [1]) | fold induction at 0.3 µM (T-cell [2]) | fold induction at 1 µM (T-cell [2]) | fold induction at 4 µM (T-cell [2]) | IC50 (Cbl-b [3]) [nM] | fold induction at 0.3 µM (T-cell [4]) | fold induction at 1 µM (T-cell [4]) | fold induction at 4 µM (T-cell [4]) | IC50 (Cbl-b [5]) [nM] | Kd (Cbl-b (residues 36-427)) [nM] | fold induction at 1 µM (T-cell [6]) | fold induction at 8 µM (T-cell [6])
C[C@@H]1[C@@H](c2nncn2C)[C@H]1c1cccc(N2Cc3c(cccc3C(F)(F)F)C2=O)c1 [Compound 375, 2-[3-[(1 S,2S,3R)-2-methyl-3-(4-methyl-4H-1,2,4-triazol-3-yl)cyclopropyl]phenyl]-4-(trifluoromethyl)-2,3-dihydro-1H-isoindol-1-one] | > 0.201 | > 0.201 | 1.01 to 1.3 | 1.31 to 1.5 | 1.31 to 1.5 | ≤ 100 | 2.51 to 5 | 5 to 7.5 | > 7.5 | < 100 | < 100 | > 1 | > 1
Cc1c[nH]nc1-c1cc2c(c(C(F)(F)F)c1)CN(c1cccc([C@H](C)Cc3nncn3C)c1)C2=O [Compound 377, 6-(4-methyl-1H-pyrazol-3-yl)-2-{3-[(2R)-1-(4-methyl-4H-1,2,4-triazol-3-yl)propan-2-yl]phenyl}-4-(trifluoromethyl)-2,3-dihydro-1H-isoindol-1-one] | > 0.201 | > 0.201 | 1.31 to 1.5 | 1.51 to 1.75 | > 1.76 | ≤ 100 | 1.01 to 2.5 | 5 to 7.5 | > 7.5 | < 100 | < 100 | 0.601 to 0.8 | 0.801 to 1
Cc1n[nH]c(C)c1-c1cc2c(c(C(F)(F)F)c1)CN(c1cccc([C@H](C)Cc3nncn3C)c1)C2=O [Compound 378, 6-(3,5-dimethyl-1H-pyrazol-4-yl)-2-{3-[(2R)-1-(4-methyl-4H-1,2,4-triazol-3-yl)propan-2-yl]phenyl}-4-(trifluoromethyl)-2,3-dihydro-1H-isoindol-1-one] | > 0.201 | > 0.201 | 1.31 to 1.5 | 1.51 to 1.75 | > 1.76 | ≤ 100 | 2.51 to 5 | > 7.5 | > 7.5 | < 100 | < 100 | > 1 | > 1
C[C@H](Cc1nncn1C)c1cccc(N2Cc3c(cc(N[C@H]4CCNC4)cc3C(F)(F)F)C2=O)c1 [Compound 379, 2-(3-((R)-1-(4-methyl-4H-1,2,4-triazol-3-yl)propan-2-yl)phenyl)-6-(((S)-pyrrolidin-3-yl)amino)-4-(trifluoromethyl)isoindolin-1-one] | 0.101 to 0.15 | 0.151 to 0.2 | 1.01 to 1.3 | 1.01 to 1.3 | 1.01 to 1.3 | ≤ 100 | 1.01 to 2.5 | 2.51 to 5 | 2.51 to 5 | < 100 | < 100 | 0.801 to 1 | > 1
C[C@H](Cc1nncn1C)c1cccc(N2Cc3c(cc(N(C)[C@H]4CCNC4)cc3C(F)(F)F)C2=O)c1 [Compound 380, 6-(methyl((S)-pyrrolidin-3-yl)amino)-2-(3-((R)-1-(4-methyl-4H-1,2,4-triazol-3-yl)propan-2-yl)phenyl)-4-(trifluoromethyl)isoindolin-1-one] | 0.151 to 0.2 | > 0.201 | 1.31 to 1.5 | 1.31 to 1.5 | 1.51 to 1.75 | ≤ 100 | 2.51 to 5 | 2.51 to 5 | > 7.5 | < 100 | < 100 | 0.801 to 1 | > 1
Cc1[nH]ncc1-c1cc2c(c(C(F)(F)F)c1)CN(c1cccc([C@H](C)Cc3nncn3C)c1)C2=O [Compound 381, 6-(5-methyl-1H-pyrazol-4-yl)-2-{3-[(2R)-1-(4-methyl-4H-1,2,4-triazol-3-yl)propan-2-yl]phenyl}-4-(trifluoromethyl)-2,3-dihydro-1H-isoindol-1-one] | 0.151 to 0.2 | > 0.201 | 1.31 to 1.5 | 1.51 to 1.75 | 1.51 to 1.75 | ≤ 100 | 2.51 to 5 | 5 to 7.5 | > 7.5 | < 100 | < 100 | 0.801 to 1 | > 1
C[C@H](Cc1nncn1C)c1cccc(N2Cc3c(cc([C@H]4CCCNC4)cc3C(F)(F)F)C2=O)c1 [Compound 383, 2-(3-((R)-1-(4-methyl-4H-1,2,4-triazol-3-yl)propan-2-yl)phenyl)-6-((R)-piperidin-3-yl)-4-(trifluoromethyl)isoindolin-1-one] | > 0.201 | > 0.201 | 1.31 to 1.5 | 1.51 to 1.75 | 1.51 to 1.75 | ≤ 100 | 2.51 to 5 | 5 to 7.5 | > 7.5 | < 100 | 100 to 300 | 0.801 to 1 | > 1
C[C@H](Cc1nncn1C)c1cccc(N2Cc3c(cc(-n4cccn4)cc3C(F)(F)F)C2=O)c1 [Compound 384, (R)-2-(3-(1-(4-methyl-4H-1,2,4-triazol-3-yl)propan-2-yl)phenyl)-6-(1H-pyrazol-1-yl)-4-(trifluoromethyl)isoindolin-1-one] | > 0.201 | > 0.201 | 1.31 to 1.5 | 1.51 to 1.75 | 1.51 to 1.75 | ≤ 100 | 2.51 to 5 | > 7.5 | > 7.5 | < 100 | < 100 | > 1 | > 1
C[C@H](Cc1nncn1C)c1cccc(N2Cc3c(cc(CO)cc3C(F)(F)F)C2=O)c1 [Compound 392, (R)-6-(hydroxymethyl)-2-(3-(1-(4-methyl-4H-1,2,4-triazol-3-yl)propan-2-yl)phenyl)-4-(trifluoromethyl)isoindolin-1-one] | 0.151 to 0.2 | > 0.201 | 1.01 to 1.3 | 1.01 to 1.3 | 1.31 to 1.5 | ≤ 100 | 2.51 to 5 | 5 to 7.5 | > 7.5 | < 100 | < 100 | > 1 | > 1
C[C@H](Cc1nncn1C)c1cccc(N2Cc3c(cc(CN4C[C@@H](O)[C@H](F)C4)cc3C(F)(F)F)C2=O)c1 [Compound 395, 6-(((3R,4R)-3-fluoro-4-hydroxypyrrolidin-1-yl)methyl)-2-(3-((R)-1-(4-methyl-4H-1,2,4-triazol-3-yl)propan-2-yl)phenyl)-4-(trifluoromethyl)isoindolin-1-one] | > 0.201 | > 0.201 | 1.01 to 1.3 | 1.31 to 1.5 | 1.31 to 1.5 | ≤ 100 | 2.51 to 5 | > 7.5 | > 7.5 | < 100 | < 100 | > 1 | > 1
